US8673864B2, “Mangiferin-berberine salt, manufacturing method and use thereof” (Hainan Deze Drug Research Co., Ltd., priority 2009, dated 2014)

Legend:
[1] = Precipitation of the acidic solutions at room temperature within 24 hours; assay type: physicochemical; settings: for precipitate on standing: room temperature, 12 hours
Protocol: (§1) As the pH of human gastric juice is 1-3, the above properties of mangiferin-berberine salt can be well dissolved in gastric juice, which is very conducive to the absorption of drugs in the body. Any ratio mangiferin-berberine composition can not increase the solubility in the acidic water.
Mark all above the mangiferin-berberine salt solutions, places them at room temperature, observe the phenomenon within 24 hours.

[2] = Accelerated stability test, content by HPLC; assay type: physicochemical
Protocol: Put several parts of mangiferin-berberine salt into glass bottles, seal, set inside drug stability chamber, set accelerated testing conditions to: 40° C.±2° C./75% RH+5% RH. At 0 and 1 and 2 months, sample, determine the content of mangiferin-berberine salt by HPLC.

rheumatoid arthritis rat = experiment: Effect on rheumatoid arthritis rat (collagen type II model), foot swelling; assay type: in vivo, rats; settings: versus model group
Protocol: (§2) Wistar rats, female, 100±20 g. Acid-soluble Bovine-derived collagen type II (Collagen II) and Freund's incomplete adjuvant was purchased from Sigma. TNF-α kit was purchased from Nanjing Jiancheng Biological Engineering Institute.
(§3) The Acid-soluble Bovine-derived collagen type II (C II) with Freund's incomplete adjuvant, was made up to 2.5 mg/ml emulsion, Every rat was injected emulsion containing […] by intradermal in the right rear paw in order to inflame.
(§4) Normal rats group (control group, n=10); model rats group (n=10); mangiferin-berberine salt low dose group (10 mg/kg, n=10, BML); mangiferin-berberine salt middle dose group (20 mg/kg, n=10, BMM); mangiferin-berberine salt high dose group (40 mg/kg, n=10, BMH); Dexamethasone Sodium Phosphate group (0.1 mg/kg, Dexa, n=10).
(§5) Two weeks after primary immunization, test samples or vehicle control was given orally for 4 weeks. Normal and model rats group were given the saline of an equal volume.
Foot swelling: Measurement the volume of right hind foot by capillary enlarge measure method, calculated swelling growth percentage [(value after administration−value before administration)/value before administration]×100%.

ACC = experiment: Phosphorylation of ACC in L6 cells (Western blot, phospho-ACC ser79); assay type: cell-based, rat; settings: 1.25-5 μmol/L, 3 h, dose-dependent
Protocol: (§6) Mangiferin-berberine salt that is obtained by the method of embodiments as above dissolves in DMSO. Before use it is diluted by culture medium or HBS. The ultimate concentration of DMSO is less than 0.2%.
(§7) The rat L6 cell line was obtained from the ATCC. HG-DMEM was from GIBCO™. Fetal bovine serum (FBS) was purchased from Hyclone. Anti-AMPK, anti-ACC, antiphospho-AMPK (Thr172), antiphospho-ACC (ser79) polyclonal antibodies were from Cell Signal Technology.
(§8) L6 cells were grown in HG-DMEM containing 10% (v/v) FBS, 100 units/ml penicillin and 100 U/ml streptomycin in a humidified atmosphere of 5% CO2 at 37° C. When the cells covered 60%, the medium was switched to HG-DMEM with 2% FBS and the culture medium was replaced every two days until that the cells covered about 90%.
(§9) Cells in 6-well plates were starved in serum-free HG-DMEM, and then samples were added into serum-free HG-DMEM; the concentration of DMSO is 0.2%. The samples incubated for 3 h in the cells. […]
(§10) Samples were electrophoresed on 10% SDS-polyacrylamide gels, and transferred to PVDF membranes under 100V and 1-2 h in the transmembrane instrument. Protein in the gel was transferred to […] under the state of half dry, and the band was determined by Ponceau S (Ponceau S). […]

[3] = Solubility of mangiferin-berberine salt in water; assay type: physicochemical
Protocol: Its chemical structure is as follows:
5 mg mangiferin-berberine salt powder which is weighed up accurately is put into 50 ml distilled water under 25° C.±2° C., the solution is shaken strongly 30 seconds every 5 minutes. There are solute particles in 30 minutes. The water solubility of mangiferin-berberine salt is less than 0.1 mg/ml. Mangiferin-berberine salt is hardly solubility substance in water.

dementia rats = experiment: Effect on Aβ1-40-induced dementia rats (Morris water maze); assay type: in vivo; settings: versus model group
Protocol: SD male rats, SPF, 250˜300 g, free drinking water and eating food, before the experiment in a lab environment adapted for 2-3d, the temperature of the laboratory was controlled at 25° C., relative humidity was 40%-80%.
Sham surgery rats group (control group, n=10) were injected the saline of an equal volume in the hippocampus; model rats group (n=10) were treated by Aβ1-40; mangiferin-berberine salt low dose group (20 mg/kg, n=10, BML); mangiferin-berberine salt middle dose group (40 mg/kg, n=10, BMM); mangiferin-berberine salt high dose group (80 mg/kg, n=10, BMH).
Test samples or vehicle control was given orally for 4 weeks, one week before modeled. Maze training period, administrated in 0.5 h before training.
Injected […] into the hippocampus of rats to establish animal model of AD. As follows: […]
Spatial learning and memory tests: Morris water maze method. Platform located in the northeast quadrant of the middle of the maze; the water level is 1.5 cm above the platform; the temperature of water was maintained at 19° C.˜20° C.; rats were continuously training for 5d, twice a day; we set the maximum swimming time of 70s, recorded the time that rats found the platform (latent period, EL) by stopwatch.

[4] = system: human hepatoma cell line Bel-7402; experiment: Chemosensitizing effect on tumor cells (MTT cytotoxicity); assay type: cell-based; settings: 72 h
Protocol: Mangiferin-berberine salt (BM) was obtained by the method of embodiments as above. Cisplatin (DDP), adriamycin (ADM) and taxol were purchased from the market. Samples were dissolved in DMSO.
DMSO group, BM group (20 μmol/L), DDP group (1 μmol/L), ADM group (1 μmol/L), TAXOL group (1 μmol/L), BM (20 μmol/L)+DDP (1 μmol/L) group, BM (20 μmol/L)+ADM (1 μmol/L) group, BM (20 μmol/L)+TAXOL (1 μmol/L) group.
In accordance with 10^3-10^4/well, cultured human hepatoma cell line Bel-7402 200 μl per well were inoculated into 96-well cell culture plate, the samples were added after 24 hours. For those groups which are composed of the two samples, after mangiferin-berberine salt and cells were cultured together for 3 h, DDP or ADM or TAXOL were added, cultured for 72 h. Finally cell toxicity was determined by tetrazolium salt reduction (MTT). Experiments were repeated twice.

TNF-α = experiment: Serum TNF-α in rheumatoid arthritis rat (ELISA); assay type: in vivo, rats; settings: versus model group
Protocol: as §2, §3, §4, §5
4.2 Cytokines: The blood specimens were taken from femoral artery at the end of the experiment, and serum was extracted, then frozen. TNF-α was measured according to the instructions of ELISA kit.

[5] = Solubility in different pH water (hydrochloric acid adjusted); assay type: physicochemical
Protocol: as §1
Take pure water; add hydrochloric acid to adjust pH to 1 and 3 and 5 separately. Take the water 50 ml of different pH; weigh up accurately 50 mg mangiferin-berberine salt powder, put into the 50 ml water as above, shake and observe dissolved phenomena.
Take the water 50 ml of different pH 1 and 3; weigh up accurately 100 mg mangiferin-berberine salt powder, put into the 50 ml water as above, shake and observed dissolved phenomena.
Take the water 50 ml of pH 1; weigh up accurately 200 mg mangiferin-berberine salt powder, put into the 50 ml water as above, shake and observed dissolved situation.
Take the water 50 ml of pH 1 for three copies; weigh up accurately 50 mg mangiferin and berberine composition powder (the molecular ratio of mangiferin and berberine is 1:1, 1:3, 1:5), put into the 50 ml water as above separately, shake and observed dissolved phenomena. The trace of the mangiferin and berberine compositions that include all ratios as above can dissolve.

AMPK = experiment: Activation of AMPK in L6 cells (Western blot, phospho-AMPK Thr172); assay type: cell-based, rat; settings: 1.25-5 μmol/L, 3 h, dose-dependent
Protocol: as §6, §7, §8, §9, §10

KK-ay mice = experiment: Effect on KK-ay mice (glucose, lipid, insulin, UAER, liver enzymes); assay type: in vivo; settings: 40 mg/kg orally for 30 days, versus model group
Protocol: Mangiferin-berberine salt was obtained by the method of examples as above. Mangiferin-berberine salt was suspended with 3‰ sodium carboxymethyl cellulose before use. Rosiglitazone hydrochloride was purchased from Zhejiang wanma pharmaceutical Co., Ltd.
KK-ay mice, 16 weeks age, male.
KK-ay mice group (n=10); mangiferin-berberine salt low dose group (20 mg/kg, n=10, BML); mangiferin-berberine salt middle dose group (40 mg/kg, n=10, BMM); mangiferin-berberine salt high dose group (80 mg/kg, n=10), BMH metformin group[500 mg/kg, n=10]. Test samples or vehicle control was given orally for 30 days. KK-ay mice group were given vehicle.
The blood specimens were taken at the end of the experiment. Plasma glucose (GLU, mmol/L), lipid [triglycerides (TG, mmol/L), total cholesterol (TC, mmol/L), low density lipoprotein (LDL, mmol/L), high density lipoprotein (HDL, mmol/L)], liver enzyme [ALT(U/L) and AST(U/L)] were determined using GF-D800 semi-auto chemist which was purchased from Shandong Gaomi Caihong Analytical Instrument Co., Ltd.
Insulin: Radioimmunoassays (RIA), γ counter counts. insulin RIA Kit was purchased from Shandong Weifang City three-dimensional (3V) Biological Company. Urinary albumin. Collected urine for 24 h by metabolic cages, and recorded the output of urine. Urine was centrifuged, supernatant was taken, it was saved at −80° C. Free urinary were collected weekly Monday 13:00 by tail raise reflection. Assay urinary albumin by competitive ELISA, calculate the urinary albumin excretion rate (urinary albumin excretion rate=urinary albumin concentration (mg/L)×urine volume (ml)/total collection time (minutes)=mg/min, UAER), the units of figure is mg/24 h.
The results have been calculated as mean±SD ( x±SD) and comparisons of the data have been done by t-test.

[6] = high dose (40 mg/kg) orally for 4 weeks
[7] = middle dose (20 mg/kg) orally for 4 weeks

## mangiferin-berberine salt
[1]; pH 1, 4 mg/ml
  precipitate on standing: more precipitate
[1]; pH 1-3, concentration below 2 mg/ml, within 12 hours
  precipitation in acid solution: precipitation is only traces
[1]; pH 1-3, concentration greater than 4 mg/ml
  precipitation in acid solution: precipitates soon after it dissolves
[1]; pH 1 and 3, 1 mg/ml and 2 mg/ml
  precipitate on standing: trace precipitate
[2]; 40° C.±2° C./75% RH+5% RH, sealed glass bottles, 0, 1 and 2 months
  content of mangiferin-berberine salt by HPLC: do not significantly change
[2]; suggested from the accelerated test
  shelf time at room temperature: > 1 year
Rheumatoid arthritis rat; [6]
  paw swelling: significantly inhibited
Rheumatoid arthritis rat; [7]
  paw swelling: significantly inhibited
ACC
  phosphorylation of ACC: increases significantly
[3]; 5 mg in 50 ml distilled water, 25° C.±2° C., 30 minutes
  water solubility: less than 0.1 mg/ml
[3]; boiling water
  solubility in boiling water: slightly soluble in boiling water
[3]; water
  solubility in water: Almost insoluble in water
Dementia rats; high dose (80 mg/kg) orally for 4 weeks
  EL (latent period) of fifth day, Morris water maze: significantly reduced
Dementia rats; middle dose (40 mg/kg) orally for 4 weeks
  EL (latent period) of fifth day, Morris water maze: significantly reduced
[4]; Bel-7402, BM 20 μmol/L 3 h before ADM 1 μmol/L
  cytotoxicity combined with ADM versus ADM alone: significantly higher
[4]; Bel-7402, BM 20 μmol/L 3 h before DDP 1 μmol/L
  cytotoxicity combined with DDP versus DDP alone: significantly higher
[4]; Bel-7402, BM 20 μmol/L 3 h before TAXOL 1 μmol/L
  cytotoxicity combined with TAXOL versus TAXOL alone: significantly higher
TNF-α; [6]
  secretion of cytokine TNF-α: significantly inhibited
TNF-α; [7]
  secretion of cytokine TNF-α: significantly inhibited
[5]; 50 mg in 50 ml water, pH 1
  dissolved phenomena: dissolved rapidly in the water of pH 1 in a few seconds
[5]; 50 mg in 50 ml water, pH 3
  dissolved phenomena: dissolved in the water of pH 3 in five minutes
[5]; 50 mg in 50 ml water, pH 5
  dissolved phenomena: did not dissolve completely
[5]; 100 mg in 50 ml water, pH 1
  dissolved phenomena: dissolved in the water of pH 1 in a minute
[5]; 100 mg in 50 ml water, pH 3
  dissolved phenomena: did not dissolve completely
[5]; 200 mg in 50 ml water, pH 1
  dissolved situation: can dissolve in the water of pH 1, but there is precipitation soon in the solution
[5]; strong acid solution, the smaller the pH, the better it dissolves
  solubility in strong acid solution: dissolves in strong acid solution
AMPK
  phosphorylation of AMPK: increases significantly
KK-ay mice
  INS: significantly improves
  ISI: significantly improves
  UAER: significantly improves
  blood glucose: significantly improves
  lipid: significantly improves
  liver enzymes: significantly improves
